Laboratory results reported in US5364615A (priority 1992, dated 1994).

Experiments:
[1] = tested on: Pneumocystis carinii; experiment: Randomized clinical trial of PCP prophylaxis (Example 8); type: in vivo, human
[2] = Adverse reactions and toxicity during PCP therapy (Example 3); details: inhaled pretreatment; 9 patients
[3] = tested on: Pneumocystis carinii; details: cited from earlier work
[4] = tested on: Pneumocystis carinii; details: in vivo; cited from earlier work
[5] = human, in vivo; cited from earlier work

## Cc1cn([C@H]2C[C@H](N=[N+]=[N-])[C@@H](CO)O2)c(=O)[nH]c1=O [zidovudine]
[1]; AZT use, Cox models, with aerosolized pentamidine
  reduction of PCP risk: two-fold
[1]; participants who had taken zidovudine, on aerosolized pentamidine, never taken: 67%
  mortality: 28%

## CC(C)NCC(O)c1cc(O)cc(O)c1 (stereo not drawn) [metaproterenol]
[2]
  control of aerosol-related cough: in 9 patients cough was mild and controlled

## Nc1ccc(S(=O)(=O)c2ccc(N)cc2)cc1 [Dapsone, diaminodiphenylsulfone]
[3]; dapsone alone
  failure rate for PCP: about 39%
[4]
  efficacy in rat PCP model: effective

## NCCC[C@](N)(C(=O)O)C(F)F [DFMO, α-difluoromethylornithine]
[3]; recent clinical studies
  clinical response: some clinical response
[4]
  efficacy in rat PCP model: hot efficacious

## COc1cc(NCc2ccc3nc(N)nc(N)c3c2C)cc(OC)c1OC [trimetrexate]
[3]; human, in vivo
  relapse rate within one month: relapse rates within one month appear to be high
[5]
  adverse reactions: Adverse reactions have been reported
